Like-named read-outs stand apart in the source and are kept apart here.
What was measured:
[1] = system: UCP1 mRNA; assay: UCP1 mRNA induction in differentiated human adipocytes (Taqman RT-PCR); format: cell-based; conditions: for UCP1 expression in comparison with flavonoid alone: flavonoid 5 μM combined with 20 μM menthol, 7 day treatment
Experimental: (§1) Gene expression was analyzed using Taqman RT-PCR and values are expressed as fold increase over untreated controls (n=5).
Gene expression was analyzed using Taqman RT-PCR and values are expressed as fold increase over untreated controls.
To determine the lowest concentrations with efficacy to induce UCP1 mRNA in human adipocytes over a 7 day time period, cells were treated with multiple concentrations of menthol combined with naringenin at 5 μM (FIG. 6).

[2] = system: GLUT4 mRNA; assay: GLUT4 mRNA induction in differentiated human adipocytes (Taqman RT-PCR); format: cell-based; conditions: human subcutaneous adipocyte cultures
Experimental: as §1
Gene expression was analyzed using Taqman RT-PCR and values are expressed as fold increase over untreated controls. Naringenin and Menthol v. Control: p=0.008, Naringenin and Menthol v. Naringenin: p=0.01. Naringenin and Menthol v. Menthol: p<0.001, Naringenin v. Control: p>0.05, Menthol v. Control: p>0.05.
(§2) UCP1 mRNA levels increased 4-8 fold in human subcutaneous adipocytes treated from 4-7 days with Naringenin at a concentration of 10 μM, the Cmax detected in human plasma after intake of citrus beverages (FIG. 1) (Kanaze, F. I., et al., Eur J Clin Nutr, 2007 61(4):472-7).

[3] = system: carnitine palmitoyltransferase 1 (CPT-1); assay: CPT-1 induction in human subcutaneous adipocyte cultures; format: cell-based
Experimental: as §1, §2

[4] = system: Pgc-1α; assay: Pgc-1α expression in human subcutaneous adipocytes; format: cell-based; conditions: Naringenin 10 μM
Experimental: as §1, §2

[5] = system: TRPM8 receptor; assay: TRPM8 receptor expression in human adipocytes; format: cell-based; conditions: 10 μM Naringenin alone
[6] = system: HEK293 cells; conditions: cited from earlier work
[7] = cited from earlier work
[8] = cited from earlier work; remark: listed apart in the source
[9] = biological target: TRPM8 (Homo sapiens, UniProt Q7Z2W7); conditions: cited from earlier work
[10] = system: UCP1 expression; conditions: cited from earlier work
[11] = system: Ucp1 expression; conditions: brown adipocytes from mice; cited from earlier work

TRPM8, sequence (Q7Z2W7 whole entry, species assumed): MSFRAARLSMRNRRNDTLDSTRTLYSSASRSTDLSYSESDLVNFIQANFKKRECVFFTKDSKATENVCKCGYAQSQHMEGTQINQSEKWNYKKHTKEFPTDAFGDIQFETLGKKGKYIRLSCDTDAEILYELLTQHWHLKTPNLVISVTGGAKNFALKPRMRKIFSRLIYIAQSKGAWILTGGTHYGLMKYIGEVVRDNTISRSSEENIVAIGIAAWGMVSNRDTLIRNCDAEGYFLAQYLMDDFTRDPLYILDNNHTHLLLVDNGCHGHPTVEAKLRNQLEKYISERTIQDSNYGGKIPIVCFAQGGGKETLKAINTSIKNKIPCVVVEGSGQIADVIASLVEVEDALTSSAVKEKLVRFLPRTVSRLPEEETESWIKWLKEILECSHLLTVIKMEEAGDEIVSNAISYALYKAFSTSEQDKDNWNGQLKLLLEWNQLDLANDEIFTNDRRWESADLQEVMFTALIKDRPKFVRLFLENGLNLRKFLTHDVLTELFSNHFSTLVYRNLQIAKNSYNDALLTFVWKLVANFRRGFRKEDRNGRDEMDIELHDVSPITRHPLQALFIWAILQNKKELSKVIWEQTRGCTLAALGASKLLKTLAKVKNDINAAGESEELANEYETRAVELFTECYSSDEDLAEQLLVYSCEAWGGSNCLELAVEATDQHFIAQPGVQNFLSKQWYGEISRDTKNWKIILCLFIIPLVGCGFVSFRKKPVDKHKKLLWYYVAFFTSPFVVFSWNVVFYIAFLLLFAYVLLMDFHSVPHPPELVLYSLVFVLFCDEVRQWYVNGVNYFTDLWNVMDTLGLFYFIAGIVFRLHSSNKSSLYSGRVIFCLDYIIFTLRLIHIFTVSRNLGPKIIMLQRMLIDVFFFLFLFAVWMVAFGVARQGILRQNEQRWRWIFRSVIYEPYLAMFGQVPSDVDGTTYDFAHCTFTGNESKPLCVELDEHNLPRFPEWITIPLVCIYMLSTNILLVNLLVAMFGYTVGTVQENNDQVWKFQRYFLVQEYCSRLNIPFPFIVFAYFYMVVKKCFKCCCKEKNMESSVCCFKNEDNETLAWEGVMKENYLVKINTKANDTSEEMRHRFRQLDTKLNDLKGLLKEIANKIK

In the case of O=C1C[C@@H](c2ccc(O)cc2)Oc2cc(O)cc(O)c21 (stereo in doubt) [Naringenin, 2,3-dihydro-5,7-dihydroxy-2-(4-hydroxyphenyl)-4H-1-benzopyran-4-one], the “UCP1 mRNA levels increased” value ([1]; Naringenin 10 μM, 4-7 days, human subcutaneous adipocytes) is reported as 4-8 fold, the “induction of brown adipocyte marker UCP1” value ([1]; human subcutaneous adipocyte cultures) is reported as “significantly induces” and the “induction of brown adipocyte marker GLUT4” value [2] is reported as “significantly induces”. For the same compound, the “induction of brown adipocyte marker CPT-1” value [3] was “significantly induces”, the “increase in transcriptional activator Pgc-1α” value [4] was “No increases were observed” and the “increase in TRPM8 receptor expression” value [5] was 4 fold. The “toxicity to cells (maximum concentration)” value [6] was 12.5 µM, the Cmax ([7]; human plasma/serum after intake of citrus beverages, read-out: Cmax) was 10 µM and the solubility ([8]; aqueous solutions) was “sparingly soluble”. The solubility ([8]; ethanol, ether, oils (e.g., olive oil or citrus oil) and supercritical carbon dioxide) was “soluble”.
For CC12CCC(CC1)C(C)(C)O2 [Eucalyptol], the “UCP1 mRNA expression versus naringenin alone” value ([1]; eucalyptol at 100 μM and 200 μM in combination with Naringenin 5 μM, 7 d) was “did not increase UCP1 mRNA expression above the level observed with naringenin alone”.
In the case of COc1ccc([C@@H]2CC(=O)c3c(O)cc(O)cc3O2)cc1O [Hesperetin], the “UCP1 expression in comparison with flavonoid alone” value (shortened to “UCP1 expression in comparison”) [1] is reported as “No statistical difference”.
In the case of O=C1NC(c2cccc([N+](=O)[O-])c2)=CCN1c1ccccc1O [Icilin], the “synergy for UCP1 mRNA induction” value ([1]; 0.5 μM icilin combined with Naringenin 5 μM, 7 d) is listed as “did not display synergy”, the EC50 ([9]; TRPM8 activator) is listed as roughly 500 nM and the “potency relative to menthol” value [9] is listed as “at least 100 fold”.
For CC1CCC(C(C)C)C(O)C1 (stereo not drawn) [Menthol], the “induction of UCP1 or other beige markers” value ([1]; Menthol alone, human adipocyte cultures) is listed as “No induction”, the “increase in UCP1 expression” value ([10]; Menthol 100 μM overnight) is listed as 1.5 fold and the “increase in UCP1 expression” value ([10]; Menthol 100 μM, cells exposed to 26° C.) is listed as 40 fold. For the same compound, the Ucp1 expression [11] was “concentration-dependent increase”, the Cmax ([7]; menthol, read-out: Cmax) was 20 µM and the Cmax ([7]; menthol, read-out: high end of serum Cmax) was 30 µM.
With COc1cc(CN(CCN)C(=O)OC(C)c2ccccc2)ccc1OCc1ccccc1 (stereo not drawn) [PBMC] the “Naringenin-stimulated UCP1 expression in presence of inhibitor” value ([1]; inhibitor during 5 μM Naringenin treatment for 3 days) was “prevented Naringenin-stimulated UCP1 expression”.
For O=c1cc(-c2ccc(O)cc2)oc2cc(O)cc(O)c12 [apigenin], the “UCP1 expression in comparison” value [1] was “No statistical difference”.
For O=c1c(O)c(-c2ccc(O)c(O)c2)oc2cc(O)cc(O)c12 [quercetin], the “UCP1 expression in comparison” value [1] was “No statistical difference”.

From US20220226280A1, “COMPOSITIONS AND METHODS FOR INCREASED GLUCOSE UPTAKE AND FAT METABOLISM” (Board of Supervisors of Louisiana State University and …, priority 2017, published 2022)
